Read-outs that look alike come from different tables or passages of the source. Where no end group is shown, it is not given here.
Assays:
DRB1*0401 (DR4w4) = DRB1*0401 (DR4w4) (Homo sapiens, UniProt P01903+P01911, A100K/A169T/F76Y/I96L/K127E/L162R/M171V/N62H/P40V/Q125Y/R42H/S133A/S149N/S66Y/V115G/V209L/W38E); experiment: HLA class II peptide binding assay, purified HLA; conditions: Table XIX, DR supermotif peptides; unit not given
[1] = test system: HLA-DR molecules (DR1, DR4w4, DR7, DRB5*0101, DRB1*1501, DRB1*1101, DRB1*0802, DRB1*1302); experiment: DR supertype cross-reactive binding; design: species or system human; conditions: number of DR1, DR4w4, DR7 bound, Table XXVIII
DRB1*0101 (DR1) = DRB1*0101 (DR1) (Homo sapiens, UniProt P01903+P01911, A100R/D57E/F55L/F60I/F76Y/I96L/L162R/M171V/P40L/Q125E/R42F/V115G/Y59C); experiment: HLA class II peptide binding assay, purified HLA; conditions: Table XIX, DR supermotif peptides; unit not given
DRB1*0701 (DR7) = DRB1*0701 (DR7) (Homo sapiens, UniProt P01903+P01911, A100R/A102G/A103Q/D57E/D86V/E43K/F76Y/K127E/L162R/M171V/P40G/Q125H/Q99D/R33Q/R42Y/R54Q/S133A/S66F/T210M/V115G/Y107V/Y59L/Y89S); experiment: HLA class II peptide binding assay, purified HLA; conditions: Table XIX, DR supermotif peptides; unit not given
HLA-B*0702 = HLA-B*0702 (Homo sapiens, UniProt P01889); format: binding
[2] = test system: B7-supertype molecules (B*0702, B*3501, B*5101, B*5301, B*5401); experiment: B7-supertype cross-reactive binding; design: species or system human; conditions: of five B7-supertype alleles tested
[3] = Table XXIV, B7 supermotif peptides

Compound | DR4w4 binding data (DRB1*0401 (DR4w4)) | DR147 Cross-binding [1] | DR1 binding data (DRB1*0101 (DR1)) | DR7 binding data (DRB1*0701 (DR7)) | IC50 (HLA-B*0702) | No. of B7 Alleles Crossbound [2] | IC50 (HLA-B*0702; [3])
ETELVEPLTPSGAMP | −0.0025 | 1 | 0.0060 | −0.0013 |  |  | 
CC[C@H](C)[C@H](NC(=O)[C@H](CCC(=O)O)NC(=O)[C@@H](N)CCCCN)C(=O)N[C@@H](CC(C)C)C(=O)N[C@@H](CC(=O)O)C(=O)N[C@@H](CCC(=O)O)C(=O)N[C@@H](C)C(=O)N[C@@H](Cc1ccc(O)cc1)C(=O)N[C@H](C(=O)N[C@@H](CCSC)C(=O)N[C@@H](C)C(=O)NCC(=O)N[C@H](C(=O)NCC(=O)N[C@@H](CO)C(=O)O)C(C)C)C(C)C | 0.0073 | 0 | 0.0036 | −0.0011 |  |  | 
DMKLRLPASPETHLD | −0.0025 | 0 | 0.0010 | −0.0013 |  |  | 
VEPLTPSGAMPNQAQ | −0.0025 | 0 | −0.0008 | −0.0011 |  |  | 
CC[C@H](C)[C@H](NC(=O)[C@H](CC(C)C)NC(=O)[C@H](C)NC(=O)[C@H](CC(C)C)NC(=O)CNC(=O)[C@H](CO)NC(=O)CNC(=O)[C@H](CC(C)C)NC(=O)[C@H](CCC(=O)O)NC(=O)[C@H](CCCNC(=N)N)NC(=O)[C@@H](N)CC(C)C)C(=O)N[C@@H](Cc1c[nH]cn1)C(=O)N[C@@H](Cc1c[nH]cn1)C(=O)N[C@@H](CC(N)=O)C(=O)N[C@H](C(=O)O)[C@@H](C)O | −0.0025 | 1 | 0.0310 | −0.0013 |  |  | 
CC[C@H](C)[C@H](NC(=O)[C@@H]1CCCN1C(=O)[C@H](CCSC)NC(=O)[C@H](Cc1ccc(O)cc1)NC(=O)[C@H](CO)NC(=O)[C@H](CC(C)C)NC(=O)[C@H](CC(=O)O)NC(=O)[C@@H]1CCCN1C(=O)[C@@H](N)CCCCN)C(=O)N[C@@H](Cc1c[nH]c2ccccc12)C(=O)N[C@@H](CCCCN)C(=O)N[C@@H](Cc1ccccc1)C(=O)N1CCC[C@H]1C(=O)N[C@@H](CC(=O)O)C(=O)N[C@@H](CCC(=O)O)C(=O)O | −0.0025 | 1 |  |  |  |  | 
CSCC[C@H](NC(=O)[C@H](CC(C)C)NC(=O)[C@H](CCC(=O)O)NC(=O)[C@H](Cc1c[nH]c2ccccc12)NC(=O)[C@@H](NC(=O)[C@@H](NC(=O)[C@@H](NC(=O)CN)C(C)C)[C@@H](C)O)C(C)C)C(=O)N[C@H](C(=O)N[C@@H](Cc1ccccc1)C(=O)NCC(=O)N[C@@H](C)C(=O)N[C@@H](CCCCN)C(=O)N1CCC[C@H]1C(=O)N[C@@H](Cc1ccc(O)cc1)C(=O)O)[C@@H](C)O | 0.0330 | 1 |  | 0.0170 |  |  | 
CC[C@H](C)[C@H](NC(=O)[C@H](CCC(=O)O)NC(=O)[C@H](CCCNC(=N)N)NC(=O)[C@H](C)NC(=O)[C@@H]1CCCN1C(=O)[C@@H](NC(=O)CNC(=O)[C@H](CC(=O)O)NC(=O)[C@H](Cc1ccc(O)cc1)NC(=O)[C@@H]1CCCN1C(=O)[C@@H](N)Cc1ccccc1)[C@@H](C)CC)C(=O)O [Her2/neu.921.F1I11] |  |  |  |  | 141 nM | 4 | 
FPYDGIPI [Her2/neu.921.F1I8] |  |  |  |  |  | 5 | 177 nM
CC[C@H](C)[C@H](NC(=O)[C@H](CO)NC(=O)[C@H](CCCNC(=N)N)NC(=O)[C@H](Cc1ccc(O)cc1)NC(=O)[C@H](Cc1ccccc1)NC(=O)[C@@H](NC(=O)[C@H](CO)NC(=O)[C@H](CC(=O)O)NC(=O)[C@H](CC(C)C)NC(=O)[C@@H]1CCCN1C(=O)[C@@H](N)Cc1ccccc1)[C@@H](C)O)C(=O)O [Her2/neu.998.F1I11] |  |  |  |  |  | 3 | 229 nM
CPAEQRASPL [Her2/neu.642] |  |  |  |  |  | 1 | 37 nM
FPYDGIPA [Her2/neu.921.F1] |  |  |  |  | 423 nM | 4 | 
CC[C@H](C)[C@H](NC(=O)[C@H](CO)NC(=O)[C@@H](NC(=O)[C@H](CC(C)C)NC(=O)[C@@H]1CCCN1C(=O)[C@@H](N)CO)[C@@H](C)O)C(=O)N[C@H](C(=O)N[C@@H](CO)C(=O)N[C@@H](C)C(=O)N[C@H](C(=O)O)C(C)C)[C@@H](C)CC [Her2/neu.649] |  |  |  |  |  | 1 | 61 nM
CC[C@H](C)[C@H](NC(=O)[C@@H](NC(=O)[C@H](Cc1ccc(O)cc1)NC(=O)[C@H](CCCNC(=N)N)NC(=O)CNC(=O)[C@H](CCC(=O)O)NC(=O)[C@@H]1CCCN1C(=O)[C@H](CC(N)=O)NC(=O)[C@@H]1CCCN1C(=O)[C@@H](N)Cc1ccccc1)[C@@H](C)O)C(=O)O [Her2/neu.282.F1] |  |  |  |  |  | 5 | 324 nM
CC(C)C[C@H](NC(=O)CNC(=O)[C@H](Cc1ccc(O)cc1)NC(=O)[C@H](CS)NC(=O)[C@@H](NC(=O)[C@H](CCCNC(=N)N)NC(=O)[C@H](C)NC(=O)[C@H](CS)NC(=O)[C@@H]1CCCN1C(=O)[C@@H](N)Cc1ccccc1)C(C)C)C(=O)O [Her2/neu.336.F1] |  |  |  |  |  | 3 | 190 nM
CC(C)C[C@H](NC(=O)[C@@H]1CCCN1C(=O)[C@H](CO)NC(=O)[C@@H]1CCCN1C(=O)[C@H](CC(=O)O)NC(=O)[C@H](Cc1c[nH]cn1)NC(=O)[C@@H](NC(=O)[C@@H]1CCCN1C(=O)[C@@H](N)Cc1ccccc1)[C@@H](C)O)C(=O)O [Her2/neu.1101.F1] |  |  |  |  |  | 3 | 10 nM
CC[C@H](C)[C@H](NC(=O)[C@@H]1CCCN1C(=O)[C@H](CCSC)NC(=O)[C@H](Cc1ccc(O)cc1)NC(=O)[C@H](CO)NC(=O)[C@H](CC(C)C)NC(=O)[C@H](CC(=O)O)NC(=O)[C@@H]1CCCN1C(=O)[C@@H](N)Cc1ccccc1)C(=O)O [Her2/neu.605.F1] |  |  |  |  |  | 5 | 22 nM
CC(C)C[C@H](NC(=O)[C@@H]1CCCN1C(=O)[C@H](CO)NC(=O)[C@H](C)NC(=O)[C@@H]1CCCN1C(=O)[C@@H](N)Cc1ccccc1)C(=O)N[C@@H](CC(=O)O)C(=O)N[C@@H](CO)C(=O)N[C@H](C(=O)N[C@@H](Cc1ccccc1)C(=O)O)[C@@H](C)O [Her2/neu.995.F1] |  |  |  |  |  | 4 | 3.7 nM
CC[C@H](C)[C@H](NC(=O)[C@@H](NC(=O)[C@H](Cc1c[nH]cn1)NC(=O)[C@H](CC(C)C)NC(=O)[C@H](CC(C)C)NC(=O)[C@H](C)NC(=O)[C@H](CCC(N)=O)NC(=O)[C@H](Cc1c[nH]cn1)NC(=O)[C@@H]1CCCN1C(=O)[C@@H](N)Cc1ccccc1)[C@@H](C)O)C(=O)O [Her2/neu.488.F1I10] |  |  |  |  |  | 4 | 86 nM
LTSHSAVVGILLVV | −0.0025 |  | 0.1900 | 0.0049 |  |  | 
CC[C@H](C)[C@H](NC(=O)[C@H](CO)NC(=O)[C@@H](NC(=O)[C@@H](NC(=O)[C@H](CO)NC(=O)[C@@H](NC(=O)[C@H](CC(C)C)NC(=O)[C@@H]1CCCN1C(=O)[C@@H](N)CO)[C@@H](C)O)[C@@H](C)CC)[C@@H](C)CC)C(=O)O [Her2/neu.649.I9] |  |  |  |  |  | 3 | 86 nM
CPSGVKPDLSY [Her2/neu.600] |  |  |  |  |  | 1 | 183 nM
CC(C)[C@H](NC(=O)[C@H](Cc1ccc(O)cc1)NC(=O)CNC(=O)[C@H](CC(=O)O)NC(=O)[C@@H](NC(=O)[C@H](CCC(=O)O)NC(=O)[C@H](CO)NC(=O)[C@@H]1CCCN1C(=O)[C@@H](N)Cc1ccccc1)[C@@H](C)O)C(=O)O [Her2/neu.1120.F1] |  |  |  |  |  | 3 | 204 nM

— patent US20040121946A9, “Inducing cellular immune responses to her2/neu using peptide and nucleic acid compositions” (priority 2002, published 2004)
